Structures are written as SMILES.

Experiment [1] concerns Male Sprague Dawley rats. Kind of experiment: Preventative Adjuvant Edema (acute anti-inflammatory effect, hind paw edema volume). The class given is in vivo. The note with it: 25 mg/kg, p.o., edema volume day 0 to day 3. As to the method:
This test is a primary screen for anti-inflammatory drugs.
Male Sprague Dawley rats (180-200 g) are used. The animals have free access to water but food is withdrawn 18 hours before testing.
Freund's complete adjuvant is prepared by suspending 5 mg of killed and dried Mycobacterium butyricum (Difco) in 1 ml liquid paraffin. The test compounds are dissolved in distilled water or suspended in 0.5% Tween 80 in distilled water according to their solubility. For primary screening all drugs are administered by gastric lavage at the arbitrary dosage of 25 mg/kg, p.o. in a volume of 0.5 mL/100 g body weight to groups of 10 animals.
The method is essentially that described by Wax et al, J. Pharmacol. Exp. Ther., 192, 166-171 (1975). Groups of rats are injected intradermally in the left hind paw with 0.1 mL of Freund's complete adjuvant. The test compound or vehicle is administered immediately before the adjuvant, 24 hours and 48 hours after the adjuvant (days 0, 1 and 2). The injected hind paw volume is measured before the injection of adjuvant and 24 hours after the last drug administration (day 3) by means of a plethysmometer (Buxco Electronics Inc.). The difference between the hind paw volume on day 0 and day 3 represents the edema volume. Etodolac (25 mg/kg, p.o.) is included as a positive control.
The mean edema volume (expressed as mL ±SEM) is calculated for each group and the percentage inhibition of inflammation conferred by the drug is calculated: [formula] where c is the mean edema volume for the untreated controls and t is the mean edema volume for the drug treated group.

The test system of experiment [2] is Male Swiss albino mice. Nature of the experiment: Drug Effects on Phenylbenzoquinone-induced Writhing in Mice. Format: in vivo. The note with it: 10 mg/kg, p.o., PBQ i.p. 60 minutes after dosing, writhes counted over 15 minutes. As to the method: A further test used to determine the utility of the compounds of the present invention is designated: Drug Effects on Phenylbenzoquinone-induced Writhing in Mice
The objective of this test is to determine the ability of test drugs to inhibit the nociceptive (pain) response of mice injected with a chemical irritant. This test is a primary screen for both peripheral and centrally acting analgesic drugs.
Male Swiss albino mice (15-25 g) are used. The animals are fasted for 18 hours prior to use but have free access to water.
Drugs are dissolved or suspended according to their solubility in 0.5% Tween 80 in distilled water. They are administered by gastric gavage in a volume of 5 mL/kg. For primary screening all drugs are administered at the arbitary dosage of 25 mg/kg, p.o. to a group of 10 mice.
A modification of the method of Siegmund et al, Proc. Soc. Exp. Biol. Med., 95, 729-731 (1957) is used. Groups of 5 mice are dosed with the test compound or vehicle control. Sixty minutes later the animals are injected i.p. with 0.3 mL/20 g body weight of a 0.02% solution of phenylbenzoquinone (PBQ; 2-phenyl-1,4-benzoquinone) and placed in individual observation boxes. The number of writhing or abdominal squirming movements made by each mouse during the following 15 minute period is counted. The experiment is repeated with another group of 5 mice and the mean number of writhes per mouse for a group of 10 mice is calculated.
Drug treated and vehicle-treated control groups are compared and the percentage inhibition of writhing conferred by the drug is calculated: [formula] where c=mean number of writhes in the control group where t=mean number of writhes in the test drug group

For `Cc1c(Cl)ccc2c3c([nH]c12)[C@]1(CC(=O)O)CC[C@@H]1CC3Cc1ccccc1` (relative stereo) [Example 1, cis-7-Chloro-1,2,2a,3,4,9-hexahydro-8-methyl-4-(phenylmethyl)-9bH-cyclobuta[a]carbazole-9b-acetic Acid], the “inhibition (Preventative Adjuvant Edema)” value in experiment [1] worked out at 26%. The “inhibition (Phenylbenzoquinone Writhing in Mice)” value in experiment [2] is 73%. For the compound `Cc1c(Cl)ccc2c3c([nH]c12)[C@@]1(CC(=O)O)CC[C@H]1CC3` (relative stereo) [Example 2, cis-7-Chloro-1,2,2a,3,4,9-hexahydro-8-methyl-9bH-cyclobuta[a]carbazole-9b-acetic Acid], the “inhibition (Preventative Adjuvant Edema)” value in experiment [1] was found to be 85%. Besides, in experiment [2], the “inhibition (Phenylbenzoquinone Writhing in Mice)” value is on record as 56%. The like results for `O=C(O)C[C@]12CC[C@H]1CCc1c2[nH]c2ccccc12` (relative stereo) [Example 4, cis-1,2,2a,3,4,9-Hexahydro-9bH-cyclobuta[a]carbazole-9b-acetic Acid] were, in that order, 64% and 21%. Take `CCCc1cc(C(C)=O)cc2c3c([nH]c12)[C@@]1(CC(=O)O)CC[C@H]1CC3` (relative stereo) [Example 5, cis-6-Acetyl-1,2,2a,3,4,9-hexahydro-8-propyl-9bH-cyclobuta[a]carbazole-9b-acetic Acid]: the “inhibition (Phenylbenzoquinone Writhing in Mice)” value in experiment [2] is reported as 56%. As to `CCc1cccc2c3c([nH]c12)[C@]1(CC(=O)O)C[C@@H]1CC3` (relative stereo) [Example 6, (1a. α,8b. α)-7-Ethyl-1,1a,2,3,8,8b-hexahydrocyclopropa[a]carbazole-8b-acetic Acid], in experiment [1], the “inhibition (Preventative Adjuvant Edema)” value amounted to 13%. In addition, the “inhibition (Phenylbenzoquinone Writhing in Mice)” value in experiment [2] was found to be 27%. Turning to `O=C(O)C[C@@]12CC[C@@H]1CC(Cc1ccccc1)c1c2[nH]c2ccccc12` (relative stereo) [Example 7, cis-1,2,2a,3,4,9-Hexahydro-4-(phenylmethyl)-9bH-cyclobuta[a]carbazole-9b-acetic Acid], in experiment [2], the “inhibition (Phenylbenzoquinone Writhing in Mice)” value was 0%.

These data come from patent publication US4888431A, “Process for the preparation of substituted fused tetrahydrocarbazole acetic acid derivatives” (American Home Products Corporation, priority 1989, dated 1989).
